# Experimental data as given in patent US4946835A (priority 1988, dated 1990).
# Like-named read-outs stand apart in the source and are kept apart here.
# What was measured:
# [1] = tested on: Cryptococcus neoformans; assay: agar dilution assay (MIC) against expanded panel of 84 Cryptococcus neoformans isolates; type: cell-based; details: for MIC50: read-out: MIC50 (concentration at which 50% of the strains were inhibited); for MIC90: read-out: MIC90 (concentration at which 90% of the strains were inhibited)
# Description: (§1) Such activity may be illustrated with test results against Cryptococcus neoformans employing yeast nitrogen base dextrose agar medium. In carrying out the assay, Compound I was solubilized in 10 percent dimethyl sulfoxide (DMSO) supplemented with one drop of Tween 20. Twofold dilutions were made with sterile distilled water/10 percent DMSO to obtain final drug concentrations in the agar dilution assay plates ranging from 128 to 0.06 μg/ml against two strains of Cryptococcus neoformans and subsequently against an expanded panel of 84 Cryptococcus strains at concentrations ranging from 0.008 to 16.0 μg/ml.
# (§2) Nystatin or amphotericin B was used as a positive control. For the assay, nystatin was solubilized in 10 percent dimethylformamide and diluted in sterile distilled water; amphotericin B was solubilized by expressing water directly into a lyophilized cake and shaking until the colloidal solution was clear and then diluted in sterile distilled water. The final drug concentrations ranged from 0.063 to 128 μg/ml.
# [2] = tested on: Trichoderma sp.; assay: disk diffusion assay, Trichoderma sp.; type: cell-based; design: key: fuzzy (F)--a zone that had a fuzzy edge and clear center surrounding the disc; hazy (H)--a zone that was hazy throughout; slightly hazy (S)--a zone in which low levels of growth were discernible throughout the inhibition zone; very hazy (V)--a zone in which the differences between the background lawn and inhibition zone were barely discernible; details: appearance of inhibition zone
# Description: (§3) The broad antifungal activity of Compound I against fungi may be illustrated with representative assay results in a disk diffusion assay. Filamentous fungi used in the assays were prepared from stock cultures which had been maintained on potato dextrose agar (Difco) and transferred serially at two week intervals using standard microbiological techniques. Yeast used were prepared from stock cultures of strains of yeast which had been maintained frozen at -80° C. in 20 percent aqueous glycerol.
# (§4) Seeded agar assay plates were prepared according to the type of assay strain. Inoculum for filamentous fungi was prepared by scraping the surface of stock plates with a moistened sterile dacron swab. The spores and mycelia were then suspended in 10 milliliters of sterile potato dextrose broth (PDB) and adjusted to 70% transmittance (T) at 660 nm. Inoculum for Cryptococcus was prepared from overnight broth cultures. Cultures were then diluted into PDB to a final concentration of either 40% or 70% T at 660 nm. Assay plates were prepared by diluting the inoculum into appropriate molten agar medium, and thereafter cooled to 45° C., to yield a final concentration of 4 percent.
# (§5) Samples were applied to 6.2 mm filter paper disks (25 μl disk) and air dried at 24° C. […]
# (§6) Following incubation, inhibition zones were measured and recorded. […]
# [3] = tested on: Botrytis allii; assay: disk diffusion assay, Botrytis allii; type: cell-based; design: key: fuzzy (F)--a zone that had a fuzzy edge and clear center surrounding the disc; hazy (H)--a zone that was hazy throughout; slightly hazy (S)--a zone in which low levels of growth were discernible throughout the inhibition zone; very hazy (V)--a zone in which the differences between the background lawn and inhibition zone were barely discernible; details: appearance of inhibition zone
# Description: as §3, §4, §5, §6
# [4] = tested on: certain yeasts, particularly the Cryptococcus species; assay: activity against certain yeasts (statement); type: cell-based
# [5] = tested on: Ustilago zea; assay: disk diffusion assay, Ustilago zea; type: cell-based; design: key: fuzzy (F)--a zone that had a fuzzy edge and clear center surrounding the disc; hazy (H)--a zone that was hazy throughout; slightly hazy (S)--a zone in which low levels of growth were discernible throughout the inhibition zone; very hazy (V)--a zone in which the differences between the background lawn and inhibition zone were barely discernible; details: appearance of inhibition zone
# Description: as §3, §4, §5, §6
# [6] = tested on: Trichoderma lignorum; assay: disk diffusion assay, Trichoderma lignorum; type: cell-based; design: key: fuzzy (F)--a zone that had a fuzzy edge and clear center surrounding the disc; hazy (H)--a zone that was hazy throughout; slightly hazy (S)--a zone in which low levels of growth were discernible throughout the inhibition zone; very hazy (V)--a zone in which the differences between the background lawn and inhibition zone were barely discernible; details: appearance of inhibition zone
# Description: as §3, §4, §5, §6
# [7] = tested on: Cryptococcus laurentii; assay: disk diffusion assay, Cryptococcus laurentii; type: cell-based; design: key: fuzzy (F)--a zone that had a fuzzy edge and clear center surrounding the disc; hazy (H)--a zone that was hazy throughout; slightly hazy (S)--a zone in which low levels of growth were discernible throughout the inhibition zone; very hazy (V)--a zone in which the differences between the background lawn and inhibition zone were barely discernible; details: appearance of inhibition zone
# Description: as §3, §4, §5, §6
# [8] = tested on: Alternaria solani; assay: disk diffusion assay, Alternaria solani; type: cell-based; design: key: fuzzy (F)--a zone that had a fuzzy edge and clear center surrounding the disc; hazy (H)--a zone that was hazy throughout; slightly hazy (S)--a zone in which low levels of growth were discernible throughout the inhibition zone; very hazy (V)--a zone in which the differences between the background lawn and inhibition zone were barely discernible; details: appearance of inhibition zone
# Description: as §3, §4, §5, §6
# [9] = solubility; details: organic solvents
# [10] = tested on: Fusarium oxysporum; assay: disk diffusion assay, Fusarium oxysporum; type: cell-based; design: key: fuzzy (F)--a zone that had a fuzzy edge and clear center surrounding the disc; hazy (H)--a zone that was hazy throughout; slightly hazy (S)--a zone in which low levels of growth were discernible throughout the inhibition zone; very hazy (V)--a zone in which the differences between the background lawn and inhibition zone were barely discernible; details: appearance of inhibition zone
# Description: as §3, §4, §5, §6
# [11] = tested on: Serratia species; assay: activity against bacteria (statement), Serratia; type: cell-based
# [12] = tested on: Phoma sp.; assay: disk diffusion assay, Phoma sp.; type: cell-based; design: key: fuzzy (F)--a zone that had a fuzzy edge and clear center surrounding the disc; hazy (H)--a zone that was hazy throughout; slightly hazy (S)--a zone in which low levels of growth were discernible throughout the inhibition zone; very hazy (V)--a zone in which the differences between the background lawn and inhibition zone were barely discernible; details: appearance of inhibition zone
# Description: as §3, §4, §5, §6
# [13] = tested on: Verticillium serrae; assay: disk diffusion assay, Verticillium serrae; type: cell-based; design: key: fuzzy (F)--a zone that had a fuzzy edge and clear center surrounding the disc; hazy (H)--a zone that was hazy throughout; slightly hazy (S)--a zone in which low levels of growth were discernible throughout the inhibition zone; very hazy (V)--a zone in which the differences between the background lawn and inhibition zone were barely discernible; details: appearance of inhibition zone
# Description: as §3, §4, §5, §6
# [14] = tested on: Scopulariopsis communes; assay: disk diffusion assay, Scopulariopsis communes; type: cell-based; design: key: fuzzy (F)--a zone that had a fuzzy edge and clear center surrounding the disc; hazy (H)--a zone that was hazy throughout; slightly hazy (S)--a zone in which low levels of growth were discernible throughout the inhibition zone; very hazy (V)--a zone in which the differences between the background lawn and inhibition zone were barely discernible; details: appearance of inhibition zone
# Description: as §3, §4, §5, §6
# [15] = tested on: Penicillium sp.; assay: disk diffusion assay, Penicillium sp.; type: cell-based; design: key: fuzzy (F)--a zone that had a fuzzy edge and clear center surrounding the disc; hazy (H)--a zone that was hazy throughout; slightly hazy (S)--a zone in which low levels of growth were discernible throughout the inhibition zone; very hazy (V)--a zone in which the differences between the background lawn and inhibition zone were barely discernible; details: appearance of inhibition zone
# Description: as §3, §4, §5, §6
# [16] = tested on: Erwinia species; assay: activity against bacteria (statement), Erwinia; type: cell-based
# [17] = tested on: Staphylococcus species; assay: activity against bacteria (statement), Staphylococcus; type: cell-based
# [18] = tested on: Aspergillus flavus; assay: disk diffusion assay, Aspergillus flavus; type: cell-based; design: key: fuzzy (F)--a zone that had a fuzzy edge and clear center surrounding the disc; hazy (H)--a zone that was hazy throughout; slightly hazy (S)--a zone in which low levels of growth were discernible throughout the inhibition zone; very hazy (V)--a zone in which the differences between the background lawn and inhibition zone were barely discernible; details: appearance of inhibition zone
# Description: as §3, §4, §5, §6
# [19] = tested on: Aspergillus niger; assay: disk diffusion assay, Aspergillus niger; type: cell-based; design: key: fuzzy (F)--a zone that had a fuzzy edge and clear center surrounding the disc; hazy (H)--a zone that was hazy throughout; slightly hazy (S)--a zone in which low levels of growth were discernible throughout the inhibition zone; very hazy (V)--a zone in which the differences between the background lawn and inhibition zone were barely discernible; details: appearance of inhibition zone
# Description: as §3, §4, §5, §6
# [20] = tested on: Ceratocystis ulmi; assay: disk diffusion assay, Ceratocystis ulmi; type: cell-based; design: key: fuzzy (F)--a zone that had a fuzzy edge and clear center surrounding the disc; hazy (H)--a zone that was hazy throughout; slightly hazy (S)--a zone in which low levels of growth were discernible throughout the inhibition zone; very hazy (V)--a zone in which the differences between the background lawn and inhibition zone were barely discernible; details: appearance of inhibition zone
# Description: as §3, §4, §5, §6
# [21] = tested on: Cercospora beticola; assay: disk diffusion assay, Cercospora beticola; type: cell-based; design: key: fuzzy (F)--a zone that had a fuzzy edge and clear center surrounding the disc; hazy (H)--a zone that was hazy throughout; slightly hazy (S)--a zone in which low levels of growth were discernible throughout the inhibition zone; very hazy (V)--a zone in which the differences between the background lawn and inhibition zone were barely discernible; details: appearance of inhibition zone
# Description: as §3, §4, §5, §6
# [22] = tested on: Cryptococcus neoformans; assay: agar dilution assay (MIC) against two strains of Cryptococcus neoformans; type: cell-based; details: yeast nitrogen base dextrose agar
# Description: as §1, §2
# The minimum inhibitory concentration (MIC) against the organisms employed on the standard assay were as follows: […]
# [23] = tested on: Rhizomucor miehei; assay: disk diffusion assay, Rhizomucor miehei; type: cell-based; design: key: fuzzy (F)--a zone that had a fuzzy edge and clear center surrounding the disc; hazy (H)--a zone that was hazy throughout; slightly hazy (S)--a zone in which low levels of growth were discernible throughout the inhibition zone; very hazy (V)--a zone in which the differences between the background lawn and inhibition zone were barely discernible; details: appearance of inhibition zone
# Description: as §3, §4, §5, §6
# [24] = tested on: Cryptococcus albidus; assay: disk diffusion assay, Cryptococcus albidus; type: cell-based; design: key: fuzzy (F)--a zone that had a fuzzy edge and clear center surrounding the disc; hazy (H)--a zone that was hazy throughout; slightly hazy (S)--a zone in which low levels of growth were discernible throughout the inhibition zone; very hazy (V)--a zone in which the differences between the background lawn and inhibition zone were barely discernible; details: appearance of inhibition zone
# Description: as §3, §4, §5, §6
# [25] = tested on: Aspergillus fumigatus; assay: disk diffusion assay, Aspergillus fumigatus; type: cell-based; design: key: fuzzy (F)--a zone that had a fuzzy edge and clear center surrounding the disc; hazy (H)--a zone that was hazy throughout; slightly hazy (S)--a zone in which low levels of growth were discernible throughout the inhibition zone; very hazy (V)--a zone in which the differences between the background lawn and inhibition zone were barely discernible; details: appearance of inhibition zone
# Description: as §3, §4, §5, §6
# [26] = tested on: Cochliobolus miyabeanus; assay: disk diffusion assay, Cochliobolus miyabeanus; type: cell-based; design: key: fuzzy (F)--a zone that had a fuzzy edge and clear center surrounding the disc; hazy (H)--a zone that was hazy throughout; slightly hazy (S)--a zone in which low levels of growth were discernible throughout the inhibition zone; very hazy (V)--a zone in which the differences between the background lawn and inhibition zone were barely discernible; details: appearance of inhibition zone
# Description: as §3, §4, §5, §6
# [27] = tested on: Cephalosporium sp.; assay: disk diffusion assay, Cephalosporium sp.; type: cell-based; design: key: fuzzy (F)--a zone that had a fuzzy edge and clear center surrounding the disc; hazy (H)--a zone that was hazy throughout; slightly hazy (S)--a zone in which low levels of growth were discernible throughout the inhibition zone; very hazy (V)--a zone in which the differences between the background lawn and inhibition zone were barely discernible; details: appearance of inhibition zone
# Description: as §3, §4, §5, §6
structure (smiles),measurement,setting,value
"C[C@@H]1[C@H](O)[C@@H](C)/C=C/C=C/C=C/C=C/C=C/C=C/C=C/[C@H](O[C@@H]2O[C@H](C)[C@@H](O)[C@H](N)[C@@H]2O)C[C@@H]2O[C@](O)(C[C@@H](O)C[C@@H](O)[C@H](O)CC[C@@H](O)C[C@@H](O)CC(=O)O[C@H]1C)C[C@H](O)[C@H]2C(=O)O [Amphotericin B, amphotericin B, reference compound]",MIC50,[1]; 84 isolates,0.125 µg/mL
same,MIC90,[1]; 84 isolates,0.25 µg/mL
"COc1ccc(CC2NC(=O)C=CCC(C(C)C3OC3c3ccccc3)OC(=O)C(CC(C)C)OC(=O)C(C)CNC2=O)cc1Cl (stereo not shown) [Compound I, 10-[(3-chloro 4methoxyphenyl)methyl]-6-methyl-3-(2-methylpropyl)-16-[1-(3-phenyloxiranyl)ethyl]-1,4-dioxa-8,11-diazacyclohexadec-13-ene-2,5,9,12-tetrone]",Zone qualifier,[2],S
same,Zone qualifier,[3],S
same,activity against certain yeasts,[4],active
same,Zone qualifier,[5],S
same,Zone qualifier,[6],S
same,Zone qualifier,[7],H and S
same,Zone qualifier,[8],S
same,MIC,[1]; read-out: G-MIC (geometric means of MIC),0.03 µg/mL
same,MIC50,[1],0.031 µg/mL
same,MIC90,[1],0.031 µg/mL
same,solubility,[9],soluble in organic solvents
same,Zone qualifier,[10],F
same,activity against bacteria,[11],active
same,Zone qualifier,[12],S
same,Zone qualifier,[13],V
same,Zone qualifier,[14],H
same,Zone qualifier,[15],S and F
same,activity against bacteria,[16],active
same,activity against bacteria,[17],active
same,Zone qualifier,[18],S
same,Zone qualifier,[19],S
same,Zone qualifier,[20],S
same,Zone qualifier,[21],S
same,MIC,"[22]; strain MY1051, read-out: Minimum Inhibitory Concentration",≤ 0.063 µg/mL
same,Minimum Inhibitory Concentration,[22]; strain MY1146,≤ 0.063 µg/mL
same,Zone qualifier,[23],V
same,Zone qualifier,[24],S
same,Zone qualifier,[25],S
same,Zone qualifier,[26],F
same,Zone qualifier,[27],V
"C[C@@H]1[C@H](O)[C@@H](C)/C=C/C=C/CC/C=C/C=C/C=C/C=C/C(O[C@H]2O[C@H](C)[C@@H](O)[C@H](N)[C@@H]2O)CC2O[C@](O)(CC(O)C(O)CCC(O)CC(O)CC(O)CC(=O)O[C@H]1C)CC(O)C2C(=O)O (stereo partly shown) [Nystatin, nystatin, reference compound]",Minimum Inhibitory Concentration,[22]; strain MY1051,1.0 µg/mL
same,Minimum Inhibitory Concentration,[22]; strain MY1146,1.0 µg/mL
